SMILES strings stand for the structures. pEC50: −log10 of the molar value. Structures can show the parent of a compound that is named as a salt.

The first assay has as its target T1, FXR (Homo sapiens, UniProt Q96RI1).
T1 construct: expressed in transfected cells; host or cells: HEK293T
T1 sequence (Q96RI1 1-486): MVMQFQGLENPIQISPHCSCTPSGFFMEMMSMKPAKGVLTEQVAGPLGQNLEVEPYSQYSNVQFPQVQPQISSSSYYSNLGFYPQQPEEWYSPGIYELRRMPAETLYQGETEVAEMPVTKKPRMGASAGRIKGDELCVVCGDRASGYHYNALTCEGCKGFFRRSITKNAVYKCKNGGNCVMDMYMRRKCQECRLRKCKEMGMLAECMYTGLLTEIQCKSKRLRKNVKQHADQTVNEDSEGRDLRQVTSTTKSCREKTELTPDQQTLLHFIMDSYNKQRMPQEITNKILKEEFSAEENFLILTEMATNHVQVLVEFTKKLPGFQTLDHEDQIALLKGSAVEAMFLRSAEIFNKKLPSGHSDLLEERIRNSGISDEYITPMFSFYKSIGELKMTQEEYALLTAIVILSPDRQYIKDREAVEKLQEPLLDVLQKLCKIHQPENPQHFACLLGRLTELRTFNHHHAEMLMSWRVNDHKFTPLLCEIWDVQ
Nature of the assay: FXR Transactivation Assay (pBIND-FXR / pGL4.35 luciferase reporter in HEK293T). The assay is classed as cell-based. The note with it: HEK293T cells. The procedure:
FXR Transactivation Assay
pGL4.35 [luc2P/9XGAL4 UAS/Hygro]
DMEM medium, high glucose
Fetal Bovine Serum (FBS, heat-inactivated)
Penicillin-Streptomycin (10000 U/ml, 100 ml)
DMEM, High Glucose, HEPES, no Phenol Red
Opti-MEM® I Reduced Serum Medium
Steady-Glo™ Luciferase Assay System
TransIT-293 Transfection Reagent
GW4064 as a positive control
(§1) • 1. Hek293T cells were plated at 1.1*10^6/ml into a 100 mm dish. • 2. Cells were transfected with 8.4 μg of pBind-FXR, 1.26 μg of the reporter vector pGL4.35 (Promega). Cells were incubated at 37° C. under 5% CO2 atmosphere. • 3. All of compounds were 3-fold serial diluted from 10 mM stock for 10 doses in DMSO. • 4. Transfer compound dilutions into 384 well assay plates using liquid workstation. • 5. Seed 25 ul HEK293T cells into 384 well assay plate (prepared step 4) at 0.6*10^5/ml. Cells were incubated at 37° C. under 5% CO2 atmosphere overnight. • 6. Add 25 ul steady-Glo™ Luciferase Assay Reagent into each well of 384-well assay plate. • 7. Record the luminescence value on Envision 2104 plate reader. • 8. Calculate EC50 by fitting % Activity values and log of compound concentrations to nonlinear regression (dose response−variable slope) with Graphpad 5.0. FXR Coactivator Assay Reagents: LanthaScreen™ TR-FRET Farnesoid X Receptor Coactivator Assay GW4064 as a positive control Process: • 1. All of compounds were 3-fold serial diluted from 10 mM stock for 10 doses in DMSO. • 2. Dilute each 100× agonist serial dilution to 2× using Complete Coregulator buffer G. • 3. Transfer 10 μl of each of the 2× agonist serial dilutions to 384 well assay plates. • 4. […] Incubate at room temperature protected from light. • 7. Read the plate at wavelengths of 520 nm and 495 nm on Envision 2104 plate reader. • 8. Calculate the TR-FRET ratio by dividing the emission signal at 520 nm by the emission signal at 495 nm. • 9. Calculate EC50 by fitting % Activity values and log of compound concentrations to nonlinear regression (dose response−variable slope) with Graphpad 5.0.
On the technique in general: Reporter assays use an easily measured gene product as a stand-in for the process of interest.
Broadly, the pEC50 is the EC50 on a negative log10 scale, so that one unit is a factor of ten. Read a low pEC50 as a large EC50. As to `CC(C)c1onc(-c2c(Cl)cccc2Cl)c1COc1ccc(C2(C)CC2c2nc3ccc(C(=O)O)cc3s2)c(Cl)c1` (centres unmarked) [VI-11], the negative-log EC50 (pEC50) was 7.00 to 8.00.

In turn, `CC1(c2ccc(OCc3c(-c4c(Cl)cccc4Cl)noc3C3CC3)cc2Cl)CC1c1nc2c(F)cc(C(=O)O)cc2s1` (centres unmarked) [VI-09] gave a pEC50 of 7.00 to 8.00.

For `COc1cc(C(=O)O)cc2sc(C3(C)CC3c3ccc(OCc4c(-c5c(Cl)cccc5Cl)noc4C(C)C)cc3Cl)nc12` (centres unmarked) [IV-16], the pEC50 is 6.40 to 7.00.

For `CC1(c2cncc(C(=O)O)c2)CC1c1ccc(OCc2c(-c3ccccc3OC(F)(F)F)noc2C2CC2)cc1Cl` (centres unmarked) [IV-09, 5-[2-[2-Chloro-4-([5-cyclopropyl-3-[2-(trifluoromethoxy)phenyl]-1,2-oxazol-4-yl]methoxy)phenyl]-1-methylcyclopropyl] pyridine-3-carboxylic Acid], the negative-log EC50 (pEC50) was 6.40 to 7.00.

`CC(C)n1nc(C(=O)O)cc1C1CC1(C#N)c1ccc(OCc2c(-c3c(Cl)cccc3Cl)noc2C2CC2)cc1Cl` (centres unmarked) [VII-07]: the negative-log EC50 (pEC50) was 5.30 to 6.40.

In turn, `CC1(c2cncc(C(=O)O)c2)CC1c1ccc(OCc2c(-c3ccccc3OC(F)F)noc2C2CC2)cc1Cl` (centres unmarked) [IV-10] showed a pEC50 of 6.40 to 7.00.

As for `CC1(c2cccc(C(=O)O)c2)CC1c1ccc(OCc2c(-c3c(Cl)cncc3Cl)noc2C2CC2)cc1Cl` (centres unmarked) [IV-04], the pEC50 was 6.40 to 7.00.

Compound `CC1(c2ccnc(C(=O)O)c2)CC1c1ccc(OCc2c(-c3c(Cl)cccc3Cl)noc2C2CC2)cc1Cl` (centres unmarked) [IV-07] showed a negative-log EC50 (pEC50) of 5.30 to 6.40.

The compound `N#CC1(c2cccc(C(=O)O)c2)CC1c1ccc(OCc2c(-c3c(Cl)cccc3Cl)noc2C2CC2)cc1Cl` (centres unmarked) [Compound V-03] showed a pEC50 of 5.30 to 6.40.

Consider `CC1(c2ccc(OCc3c(-c4c(Cl)cccc4Cl)noc3C3CC3)cc2Cl)CC1c1ncc(C(=O)O)s1` (centres unmarked) [VI-13], for which the pEC50 is 7.00 to 8.00.

`CC(C)c1onc(-c2c(Cl)cccc2Cl)c1COc1ccc(C2(C)CC2c2ncc(C(=O)O)s2)c(Cl)c1` (centres unmarked) [VI-12, 2-(2-(2-Chloro-4-((3-(2,6-dichlorophenyl)-5-isopropylisoxazol-4-yl)methoxy)phenyl)-2-methylcyclopropyl) thiazole-5-carboxylic Acid] gave a pEC50 of 7.00 to 8.00.

On to `CC1(c2cncc(C(=O)O)c2)CC1c1ccc(OCc2c(-c3c(Cl)cccc3Cl)noc2C2CC2)cc1Cl` (single isomer, unassigned) [IV-06-1, 5-[2-(2-Chloro-4-[[5-cyclopropyl-3-(2,6-dichlorophenyl)-1,2-oxazol-4-yl]methoxy]phenyl)-1-methylcyclopropyl] pyridine-3-carboxylic Acid], for which the pEC50 was 6.40 to 7.00.

`COc1cc(C(=O)O)cc2sc(C3CC3(C#N)c3ccc(OCc4c(-c5c(Cl)cccc5Cl)noc4C4CC4)cc3Cl)nc12` (centres unmarked) [VII-06, 2-[2-(2-Chloro-4-[[5-cyclopropyl-3-(2,6-dichlorophenyl)-1,2-oxazol-4-yl]methoxy]phenyl)-2-cyanocyclopropyl]-4-methoxy-1,3-benzothiazole-6-carboxylic Acid] showed a pEC50 of 6.40 to 7.00.

As for `CC1(c2cncc(C(=O)O)c2)CC1c1ccc(OCc2c(-c3c(Cl)cccc3Cl)noc2C2CC2)cc1Cl` (single isomer, unassigned) [IV-06-2, 5-[2-(2-Chloro-4-[[5-cyclopropyl-3-(2,6-dichlorophenyl)-1,2-oxazol-4-yl]methoxy]phenyl)-1-methylcyclopropyl] pyridine-3-carboxylic Acid], the pEC50 was 7.00 to 8.00.

In the case of `CC1(c2ccc(OCc3c(-c4c(Cl)cccc4Cl)noc3C3CC3)cc2Cl)CC1c1cc(C(=O)O)ccn1` (centres unmarked) [VI-07], the pEC50 is 6.40 to 7.00.

The compound `CC(C)c1onc(-c2c(Cl)cccc2Cl)c1COc1ccc(C2(C)CC2c2nc3c(F)cc(C(=O)O)cc3s2)c(Cl)c1` (centres unmarked) [VI-08] gave a pEC50 of 7.00 to 8.00.

Turning to `COc1ccc(C(=O)O)cc1C1CC1(C#N)c1ccc(OCc2c(-c3c(Cl)cccc3Cl)noc2C2CC2)cc1Cl` (centres unmarked) [VII-09], the pEC50 is 6.40 to 7.00.

`Cc1ccc(C(=O)O)cc1C1CC1(C#N)c1ccc(OCc2c(-c3c(Cl)cccc3Cl)noc2C2CC2)cc1Cl` (centres unmarked) [VII-08] gave a negative logarithm of the EC50 (pEC50) of 7.00 to 8.00.

In the case of `N#CC1(c2ccc(OCc3c(-c4c(Cl)cccc4Cl)noc3C3CC3)cc2Cl)CC1c1cccc(C(=O)O)c1` (single isomer, unassigned) [VII-03-2, 3-[2-(2-Chloro-4-[[5-cyclopropyl-3-(2,6-dichlorophenyl)-1,2-oxazol-4-yl]methoxy]phenyl)-2-cyanocyclopropyl] benzoic Acid], the pEC50 was 7.00 to 8.00.

In turn, `CC1(c2cncc(C(=O)NCC(=O)O)c2)CC1c1ccc(OCc2c(-c3c(Cl)cccc3Cl)noc2C2CC2)cc1Cl` (centres unmarked) [IV-12, 2-([5-[2-(2-Chloro-4-[[5-cyclopropyl-3-(2,6-dichlorophenyl)-1,2-oxazol-4-yl]methoxy]phenyl)-1-methylcyclopropyl]pyridin-3-yl] formamido) Acetic Acid] gave a negative-log EC50 (pEC50) of 5.30 to 6.40.

As to `CC1(c2ccc(OCc3c(-c4c(Cl)cccc4Cl)noc3C3CC3)cc2Cl)CC1c1cccc(C(=O)O)c1` (centres unmarked) [VI-03], the pEC50 is 7.00 to 8.00.

`CC1(c2nc3ccc(C(=O)O)cc3s2)CC1c1ccc(OCc2c(-c3c(Cl)cccc3Cl)noc2C2CC2)cc1Cl` (centres unmarked) [IV-17] gave a pEC50 of 6.40 to 7.00.

`CC(C)c1cnn(-c2c(Cl)cccc2Cl)c1COc1ccc(C2CC2(C)c2cncc(C(=O)O)c2)c(Cl)c1` (centres unmarked) [IV-11] had a pEC50 of 7.00 to 8.00.

`Cc1cc(C(=O)O)cc(C2CC2(C#N)c2ccc(OCc3c(-c4c(Cl)cccc4Cl)noc3C3CC3)cc2Cl)c1` (centres unmarked) [VII-10]: the pEC50 was 7.00 to 8.00.

As to `CC(C)c1onc(-c2c(Cl)cccc2Cl)c1COc1ccc(C2CC2(C)c2ccc3c(c2)c(C(=O)O)nn3C(C)C)c(Cl)c1` (centres unmarked) [IV-14], the negative logarithm of the EC50 (pEC50) is 5.30 to 6.40.

As to `N#CC1(c2cncc(C(=O)O)c2)CC1c1ccc(OCc2c(-c3c(Cl)cccc3Cl)noc2C2CC2)cc1Cl` (centres unmarked) [Compound V-04, 5-[2-(2-Chloro-4-[[5-cyclopropyl-3-(2,6-dichlorophenyl)-1,2-oxazol-4-yl]methoxy]phenyl)-1-cyanocyclopropyl] pyridine-3-carboxylic Acid], the negative logarithm of the EC50 (pEC50) was 5.30 to 6.40.

`N#CC1(c2ccc(OCc3c(-c4c(Cl)cccc4Cl)noc3C3CC3)cc2Cl)CC1c1cncc(C(=O)O)c1` (centres unmarked) [VII-05, 5-(2-(4-((3-(2,6-Dichlorophenyl)-5-cyclopropylisoxazol-4-yl)methoxy)-2-chlorophenyl)-2-cyanocyclopropyl) pyridine-3-carboxylic Acid]: the pEC50 was 5.30 to 6.40.

In turn, `CC1(c2cncc(C(=O)O)c2)CC1c1ccc(OCc2c(-c3c(Cl)cncc3Cl)noc2C2CC2)cc1Cl` (centres unmarked) [IV-08] had a pEC50 of 6.40 to 7.00.

`CC1(c2ccc(OCc3c(-c4c(Cl)cccc4Cl)noc3C3CC3)cc2Cl)CC1c1ccnc(C(=O)O)c1` (centres unmarked) [VI-06]: the pEC50 was 7.00 to 8.00.

The target in another assay is T2, FXR-LBD (Homo sapiens, UniProt Q96RI1).
T2 construct: Add 5 μl of 4×FXR-LBD to 384 well assay plates; purchased
T2 sequence (Q96RI1 262-486 limits assumed): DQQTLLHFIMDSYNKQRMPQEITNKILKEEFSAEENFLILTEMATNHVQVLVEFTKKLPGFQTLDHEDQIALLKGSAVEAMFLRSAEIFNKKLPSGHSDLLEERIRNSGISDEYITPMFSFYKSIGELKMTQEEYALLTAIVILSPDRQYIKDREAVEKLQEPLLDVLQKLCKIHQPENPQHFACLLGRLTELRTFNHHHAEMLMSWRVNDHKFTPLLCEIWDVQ
As to the kind of experiment: FXR Coactivator Assay (LanthaScreen TR-FRET). It is filed as biochemical.
Conditions: not given
The procedure:
as §1
A general note: In TR-FRET formats the signal depends on donor and acceptor labels being close together.
Take `CC(C)c1onc(-c2c(Cl)cccc2Cl)c1COc1ccc(C2CC2(CN)c2ccc(C(=O)O)cc2)c(Cl)c1` (centres unmarked) [Compound V2-01, 4-[1-(Aminomethyl)-2-(2-chloro-4-[[3-(2,6-dichlorophenyl)-5-(propan-2-yl)-1,2-oxazol-4-yl]methoxy]phenyl)cyclopropyl] benzoic Acid Hydrochloride]: the pEC50 is 5.30 to 6.40.

As to `COc1cc(C(=O)O)cc2sc(C3CC3(C)c3ccc(OCc4c(-c5c(Cl)cccc5Cl)noc4C(C)C)cc3Cl)nc12` (centres unmarked) [VI-10], the pEC50 is 6.40 to 7.00.

Take `Cc1cc(C(=O)O)cc2sc(C3(C)CC3c3ccc(OCc4c(-c5c(Cl)cccc5Cl)noc4C4CC4)cc3Cl)nc12` (centres unmarked) [IV-18]: the pEC50 was 5.30 to 6.40.

These data come from patent publication US10899723B2, “Heterocyclic containing cyclopropyl FXR modulators” (Hepagene Therapeutics (HK) Limited, priority 2016, dated 2021).
